Experimental data reported in PMC11865978, “Cellular Activity of CQWW Nullomer-Derived Peptides” (ACS Omega, 2025).
Non-standard residues stand in square brackets, D forms with d. Residues, ends and D or L forms follow the SMILES beside them. No end group written: not given here.

Key:
GCGR-E13 = assay type: cell-based, human; conditions: 72 h
Protocol: (§1) Peptides were tested in an automated image-based high-content[42] cell painting[43],[44] assay that was originally developed to explore the mechanism of action of pharmacological and genetic perturbations within cells,[45] as well as a live cell imaging assay against six patient-derived glioblastoma cell lines (GCGR-E13, GCGR-E28, GCGR-E21, GCGR-E57, GCGR-E31, and GCGR-E34), covering classical, mesenchymal, and proneural subtypes, respectively (see Methods and Figure 1B–D), along with a healthy human fetal neuronal stem cell line (GCGR-NS9FB_B).
(§2) Cell survival was quantified by nuclei counts from the Hoechst dye-stained nuclei and IC50 values calculated along with 95% confidence intervals (Figure 1B; see Table S2 for full details). […]
(§3) High Content Phenotypic Screening assays
(§4) Cell lines (glioma stem cell lines and normal foetal neural stem cells) were seeded on laminin (10 µg/mL) coated 384-well plates (Greiner Bio-One, 781091) at 1,000 cells/well and incubated overnight at 37 °C and 5% CO2. Aqueous peptide solutions (10 mM) were further diluted to 1 mM in water containing 10 % glycerol and 0.01 % TX-100. […]
(§5) The cells were placed in an IncuCyte live cell imager (Essen BioScience) and imaged every three hours for 72 hours. Prior to fixation, the plates were removed from the IncuCyte and stained with Mitrotracker DeepRed (Invitrogen, M22426, 300 nM, 30 minutes). Cells were then fixed using 4 % formaldehyde and permeabilized with 0.1 % TX-100 in PBS. The cells were stained with ‘Cell Painting’ […]
(§6) assay reagents1: Hoechst 33342 (10 mg/mL stock, Molecular Probes, 1:5000), SYTO14 […]
(§7) BSA/PBS. The plates were imaged using an ImageXpress high content microscope (Molecular Devices). Cells were imaged with a 20× objective, covering 6 fields-of-view in each well. The data was then analyzed using a custom CellProfiler software pipeline using the University of Edinburgh high performance computing cluster. Dose response plots were calculated using HC StratomineR (corelifeanalytics.com). Nuclei count data was analyzed separately to generate cell survival metrics (normalized to aqueous glycerol/TX -100 control). […]

GCGR-E21 = assay type: cell-based, human; conditions: 72 h
Protocol: as §1, §2, §3, §4, §5, §6, §7

GCGR-E34 = assay type: cell-based, human; conditions: 72 h
Protocol: as §1, §2, §3, §4, §5, §6, §7

GCGR-E28 = assay type: cell-based, human; conditions: 72 h
Protocol: as §1, §2, §3
(§8) Cell lines (glioma stem cell lines and normal foetal neural stem cells) were seeded on laminin (10 µg/mL) coated 384-well plates (Greiner Bio-One, 781091) at 1,000 cells/well and incubated overnight at 37 °C and 5% CO2. Aqueous peptide solutions (10 mM) were further diluted to 1 mM in water containing 10 % glycerol and 0.01 % TX-100. Cells were dosed using a D300 digital dispenser (Tecan) by 10-point dose response (30 µM – 1 µM) in triplicate and with aqueous glycerol/TX-100 as control. The cells were placed in an IncuCyte live cell imager (Essen BioScience) and imaged every three hours for 72 hours. Prior to fixation, the plates were removed from the IncuCyte and stained with Mitrotracker DeepRed (Invitrogen, M22426, 300 nM, 30 minutes). Cells were then fixed using 4 % formaldehyde and permeabilized with 0.1 % TX-100 in PBS. The cells were stained with ‘Cell Painting’ […]
as §6, §7

GCGR-E31 = assay type: cell-based, human; conditions: 72 h
Protocol: as §1, §2, §3, §8, §6, §7

GCGR-E57 = assay type: cell-based, human; conditions: 72 h
Protocol: as §1, §2, §3, §8, §6, §7

GCGR-NS9FB_B = assay type: cell-based, human; conditions: 72 h
Protocol: as §1, §2, §3, §8, §6, §7

GSK-3 = assay: Reverse phase protein array (RPPA); assay type: cell-based, human; conditions: peptides at 3 μM, 3 h and 24 h (peptide 7: 24 h only), seven cell lines; fold difference vs water control
Excerpt: The phenotypic effect of the peptides was visualized by live cell imaging (Figure 1C, IncuCyte live cell imager) and also quantified via image analysis of cells labeled with the cell painting reagents (see Supporting Information) followed by image analysis using Cell Profiler (cellprofiler.org). Multiparametric outputs from Cell Profiler were processed using Phenonaut[46] [v 2.0.3] (see Jupyter notebook ‘Phenonaut_processing_of_nullomer_data.ipynb’ in the Aminonaut repository for methods and code used). […] Peptides 2, 5, and 7 were deemed to have the most merit for mode of action determination using reverse phase protein arrays (RPPAs) (see Supporting Information for methods). […]
growth and stemness was further supported by the addition of laminin extracellular matrix (Cultrex 3446-005-01, 4-10 mg/mL) to the growth media and to create pre-coated flasks/384w plates. Cells were cultured in T75 cm2 flasks and passaged as follows: Glioma stem cells generally grow slowly (~60hrs doubling time, excepting GCGR-E57 cells ~24hrs) and lag phase was exacerbated by sparse seeding. Cell confluence is generally ~80 -90% prior to passaging, whereby the culture media was aspirated, the cells washed (PBS) and Accutase solution (Sigma A6964, 1 mL) was added to detach the cells, which were then incubated at 37 °C for <5 minutes. Cells were resuspended in media and centrifuged for 3 minutes at 300 × g. Resuspended cells were typically split 1:5, 1:8 (GCGR-E57 cells) and 1:2, 1:4 for the remainder of cell lines, depending on requirements . Cells were passaged every 4-7 days to maintain health and growth and discarded after 3 months, whereupon a fresh batch of cells […]
Reverse Phase Protein Array (RPPA)
Culture media was aspirated and cells washed with wash media. Accutase solution (1mL) was used to detach the cells which were then incubated at 37 °C for 5 minutes. 10 mL of wash media was added, and the cells were pipetted into a 15 mL conical tube, after which they were centrifuged for 3 minutes at 300× g to form a pellet. Supernatant was aspirated, and cells resuspended in 5 mL of wash media. A 10 μL sample of the cell suspension was pipetted onto the reading surface of a DeNovix CellDrop automated cell counter and the reading was used to dilute the suspension in complete media to 250,000 cells/mL. 2 mL of this suspension was added to each well of 6-well plates to seed plates at 500,000 cells per well. 2 plates of each cell type (GCGR-E13, GCGR-E21, GCGR-E28, GCGR-E31, GCGR-E34, GCGR-E57 and GCGR-NS9FB_B) were seeded, one each for two nullomer dosage […]
timepoints (3 h and 24 h). The cells were incubated in the 6-well plates overnight, and dosing was carried out in the following morning. […]

NCI-60 panel = conditions: 60 cell lines from human cancers of nine organs; cited from earlier work
Excerpt: (§9) Closely related to nullomer peptides, rarely observed amino acid stretches have also been studied by Capone et al., who assert that the minimal sufficient antigenic determinants of a protein could be encoded in just five rarely seen amino acids.[20] Complementing this, Patel et al. noted that these rare sequences could be used to enhance antigen-specific immune responses when dosed alongside adjuvant vaccines.[21] It was also noted by Koulouras et al. that human viruses rarely share human nullomers, facilitating host mimicry and immune evasion,[22] an interesting example of this being highligh ...

[1] = test system: normal cell lines and cancer cell lines; conditions: cited from earlier work
Excerpt: as §9

[2] = test system: triple-negative breast cancer mouse model; conditions: cited from earlier work
Excerpt: as §9

In the case of RRRRRCAWW-NH2 [Peptide 7], the IC50 (GCGR-E13) is reported as 10.6 µM, the IC50 (GCGR-E21) is reported as 11.2 µM and the IC50 (GCGR-E34) is reported as 6 µM. For the same molecule, the IC50 (GCGR-E28) was 9.7 µM, the IC50 (GCGR-E31) was 12.1 µM and the IC50 (GCGR-E57) was 6.3 µM. For the same molecule, the IC50 (GCGR-NS9FB_B) was 11.9 µM and the “GSK-3 regulation in RPPA” value (GSK-3) was “downregulation of GSK-3β”.

For RRRRRHQWW-NH2 [Peptide 14], the IC50 (GCGR-E13) was 52 µM, the IC50 (GCGR-E21) was 132 µM and the IC50 (GCGR-E34) was greater than 100 µM. The IC50 (GCGR-E28) was 58 µM, the IC50 (GCGR-E31) was 123 µM and the IC50 (GCGR-E57) was 119 µM.

RRRRRCQWA-NH2 [Peptide 9] gave an IC50 (GCGR-E13) greater than 30 µM, an IC50 (GCGR-E21) greater than 30 µM and an IC50 (GCGR-E34) of 15.8 µM. The IC50 (GCGR-E28) was greater than 30 µM, the IC50 (GCGR-E31) was greater than 30 µM and the IC50 (GCGR-E57) was greater than 30 µM. For the same molecule, the IC50 (GCGR-NS9FB_B) was greater than 30 µM.

Molecule “RRRRR-NH2 [Peptide 15, reference compound]” has an IC50 (GCGR-E34) of 15.8 µM.

Work on RRRRRCQAW-NH2 [Peptide 8] yielded an IC50 (GCGR-E13) of 100 µM, an IC50 (GCGR-E21) of 75 µM and an IC50 (GCGR-E34) of 100 µM. The IC50 (GCGR-E28) was 100 µM, the IC50 (GCGR-E31) was 238 µM and the IC50 (GCGR-E57) was 100 µM. It also gave an IC50 (GCGR-NS9FB_B) of 100 µM.

RRRRRMQWW-NH2 [Peptide 12] gave an IC50 (GCGR-E13) of 117 µM, an IC50 (GCGR-E21) of 122 µM and an IC50 (GCGR-E34) greater than 100 µM. For the same molecule, the IC50 (GCGR-E28) was 100 µM, the IC50 (GCGR-E31) was 59.7 µM and the IC50 (GCGR-E57) was greater than 100 µM.

With RRRRRCQW-NH2 [Peptide 10] the IC50 (GCGR-E13) was greater than 100 µM, the IC50 (GCGR-E21) was greater than 100 µM and the IC50 (GCGR-E34) was 154 µM. The IC50 (GCGR-E28) was 168 µM, the IC50 (GCGR-E31) was greater than 100 µM and the IC50 (GCGR-E57) was 108 µM.

Molecule RRRRRWWQC-NH2 [Peptide 4] has an IC50 (GCGR-E13) of 13.1 µM, an IC50 (GCGR-E21) of 12.8 µM and an IC50 (GCGR-E34) of 8.6 µM. The IC50 (GCGR-E28) was 10.9 µM, the IC50 (GCGR-E31) was 11.8 µM and the IC50 (GCGR-E57) was 9 µM. It also gave an IC50 (GCGR-NS9FB_B) of 13.8 µM.

Work on N=C(N)NCCC[C@H](NC(=O)[C@H](CCCNC(=N)N)NC(=O)[C@H](CCCNC(=N)N)NC(=O)[C@@H](N)CCCNC(=N)N)C(=O)N[C@@H](CCCNC(=N)N)C(=O)N[C@H](CS)C(=O)N[C@H](CCC(N)=O)C(=O)N[C@H](Cc1c[nH]c2ccccc12)C(=O)N[C@H](Cc1c[nH]c2ccccc12)C(N)=O [Peptide 3] (H-RRRRR[dC][dQ][dW][dW]-NH2) yielded an IC50 (GCGR-E13) of 6.9 µM, an IC50 (GCGR-E21) of 7.5 µM and an IC50 (GCGR-E34) of 5.3 µM. For the same molecule, the IC50 (GCGR-E28) was 8.4 µM, the IC50 (GCGR-E31) was 8.7 µM and the IC50 (GCGR-E57) was 5.4 µM. The IC50 (GCGR-NS9FB_B) was 9.7 µM and the “GSK-3 regulation in RPPA” value (GSK-3) was “downregulation of GSK-3”.

With N=C(N)NCCC[C@H](NC(=O)[C@H](CCCNC(=N)N)NC(=O)[C@H](CCCNC(=N)N)NC(=O)[C@@H](N)CCCNC(=N)N)C(=O)N[C@@H](CCCNC(=N)N)C(=O)N[C@H](Cc1c[nH]c2ccccc12)C(=O)N[C@H](Cc1c[nH]c2ccccc12)C(=O)N[C@H](CCC(N)=O)C(=O)N[C@H](CS)C(N)=O [Peptide 5] (H-RRRRR[dW][dW][dQ][dC]-NH2) the IC50 (GCGR-E13) was 13.6 µM, the IC50 (GCGR-E21) was 16.3 µM and the IC50 (GCGR-E34) was 17.6 µM. It also gave an IC50 (GCGR-E28) of 13.2 µM, an IC50 (GCGR-E31) of 15.7 µM and an IC50 (GCGR-E57) of 9.9 µM. For the same molecule, the IC50 (GCGR-NS9FB_B) was 15.9 µM and the “GSK-3 regulation in RPPA” value (GSK-3) was “downregulation of GSK-3β”.

For RRRRRAQWW-NH2 [Peptide 6], the IC50 (GCGR-E13) was 151 µM, the IC50 (GCGR-E21) was 279 µM and the IC50 (GCGR-E28) was 86 µM.

In the case of “NWMWC [pentamer peptide nullomer of Alileche et al]”, the “lethal effect on NCI-60 panel” value (NCI-60 panel) is given as “lethal to a high fraction of oncogenic cell lines” and the mitochondrial impairment [1] is given as “caused mitochondrial impairment in both normal cell lines and cancer cell lines”.

In the case of “WCMNW [permutation of pentamer nullomer NWMWC, Alileche et al]”, the “lethal effect on NCI-60 panel” value (NCI-60 panel) is given as “lethal to a high fraction of oncogenic cell lines”, the mitochondrial impairment [1] is given as “caused mitochondrial impairment in both normal cell lines and cancer cell lines” and the “gene expression by transcriptomics in triple-negative breast cancer mouse model” value [2] is given as “downregulation of key genes involved in the mitochondrial TCA cycle”.

RRRRRFQWW-NH2 [Peptide 13] showed an IC50 (GCGR-E13) of 52 µM, an IC50 (GCGR-E21) of 81.3 µM and an IC50 (GCGR-E34) greater than 100 µM. It also gave an IC50 (GCGR-E28) of 29.6 µM, an IC50 (GCGR-E31) of 101 µM and an IC50 (GCGR-E57) of 55.7 µM.

RRRRRQWW-NH2 [Peptide 11] gave an IC50 (GCGR-E13) of 110 µM, an IC50 (GCGR-E21) of 158 µM and an IC50 (GCGR-E34) of 114 µM. It also gave an IC50 (GCGR-E28) of 72.6 µM, an IC50 (GCGR-E31) of 74.3 µM and an IC50 (GCGR-E57) of 99.5 µM.
